Laboratory results reported in PubChem BioAssay AID743276 (Broad Institute, 2014).
Records with an inconclusive call do not appear. The source made the active and inactive calls.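 The calls were made as follows: active = compounds whose fitted cell loss curve, in every repeat run, reached half effect below twice the top dose; inconclusive = repeat runs disagree, or runs show weak or poorly fitted drops; inactive = every repeat run called inactive.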

Key:
[1] = CAPAN-1 cell growth inhibition, dose response, imaging, dry powder, set 3 (AID 743276); details: CAPAN-1 cell number, Hoechst imaging, 14 days; at 50 µM (top of the series)
[2] = tested on: CAPAN-1 cell number, Hoechst imaging, 14 days; assay: as above

Row | SMILES | activity change, negative = fewer cells [1] | AC50 [2] [µM]
1 | CN(C)CCCNC(=S)N(CCN(C)C)Cc1cc2cc3c(cc2[nH]c1=O)OCCO3 | -2.03% (inactive) | 
2 | Cc1cc(C)n(-c2nc(NCCN(C)C)c3c4c(sc3n2)CCCC4)n1 |  | 15.4
3 | Cc1cc(C)c2c(c1)c1nnc(SCCN3CCCCC3)nc1n2C |  | 42.3
4 | c1ccc(-c2cc(N3CCC(N4CCCC4)CC3)n3nccc3n2)cc1 |  | 46.1
5 | CN(C)CCCN(C(=O)c1ccc(C(=O)c2ccccc2)cc1)c1nc2cc3c(cc2s1)OCO3 |  | 12.7
6 | CN(C)CCCN(C(=O)c1nc2ccccc2s1)c1nc2ccc(F)cc2s1 |  | 17
7 | COc1ccc2oc(C(=O)c3ccccc3)c(NC(=O)CN3CCN(C)CC3)c2c1 |  | 13.5
8 | COc1ccc(-c2oc3ncnc(NCCCN4CCOCC4)c3c2-c2ccc(OC)cc2)cc1 |  | 43.8
9 | COc1ccccc1Nc1nc(NCCCO)c2ccccc2n1 |  | 31.1
10 | CCCNc1nc(Cl)nc(NCc2cccnc2)n1 | -7.79% (inactive) | 
11 | CC1(C)CC(NC(=O)c2ccc(Cl)c(S(=O)(=O)N(Cc3ccccc3)c3ccccc3)c2)CC(C)(C)N1 |  | 12.8
12 | CN1CCN(CCCNC(=O)c2cc3c(-c4ccc(Cl)cc4)nn(C)c3s2)CC1 |  | 10.5
13 | Cc1ccc2sc(N(CCCN(C)C)C(=O)c3ccc(S(=O)(=O)N(C)Cc4ccccc4)cc3)nc2c1C |  | 9.25
14 | Cn1nc(-c2ccc(Cl)cc2)c2cc(C(=O)NCCCN3CCCC3)sc21 |  | 3.72
15 | COc1ccccc1Nc1nc(NCCO)c2ccccc2n1 |  | 24.6
16 | CCN1CCN(C(=S)Nc2ccc3nc(N4CCN(C)CC4)cc(C)c3c2)CC1 |  | 10.7
17 | CCN(CC)CCN(C(=O)C1=COCCO1)c1nc2c(OC)ccc(OC)c2s1 |  | 47.5
18 | CCN(CC)CCNC(=S)Nc1ccc2nc(N3CCN(CC)CC3)cc(C)c2c1 |  | 13.8
19 | OCCNc1nc(Nc2ccccc2F)nc2ccccc12 |  | 32

Row | SMILES | activity change, negative = fewer cells [1] | AC50 [2] [µM]
20 | CCN(CC)CCCN(Cc1cc2cc3c(cc2[nH]c1=O)OCO3)C(=S)NCCCN(C)C | -1.27% (inactive) | 
21 | CCCN1CCN(CCCNC(=S)Nc2ccc3nc(N4CCN(CC)CC4)cc(C)c3c2)CC1 |  | 24.7
22 | CCN1CCN(c2cc(C)c3cc(NC(=O)c4ccccn4)ccc3n2)CC1 |  | 35.6
23 | Cc1cc(N2CCN(C)CC2)nc2ccc(NC(=S)NCCCN3CCN(C)CC3)cc12 |  | 43.7
24 | CCCCN(CC)CCNC(=O)CCC(=O)Nc1ccc2nc(N3CCN(C)CC3)cc(C)c2c1 |  | 25.1
25 | CCCCN(CC)CCCNC(=S)Nc1ccc2nc(N3CCN(C)CC3)cc(C)c2c1 |  | 37.8
26 | CCCCN(CC)CCNC(=O)c1cc2c(-c3ccc(Cl)cc3)nn(C)c2s1 |  | 3.57
27 | O=c1c2c(-c3ccccc3)csc2nc2c3ccccc3c(NCCN3CCOCC3)nn12 | -15.7% (inactive) | 
28 | CCN1CCN(CCCNC(=O)C2CCN(c3nnc(-n4c(C)ccc4C)s3)CC2)CC1 |  | 20.5
29 | Cc1c(C(=O)Nc2ccc(S(=O)(=O)N(C)C3CCN(C)CC3)cc2)oc2c(Cl)cccc12 |  | 11.2
30 | Cc1ccc(C(=O)c2oc3ccc(Cl)cc3c2NC(=O)CN2CCN(C)CC2)cc1 |  | 9.78
31 | CN(C)CCCNC(=S)NCC(c1ccc(Cl)cc1Cl)c1c[nH]c2ccccc12 (stereo not drawn) |  | 27.4
32 | Cc1ccc2sc(N(CCCN(C)C)C(=O)c3ccc(S(=O)(=O)N(C)C4CCCCC4)cc3)nc2c1C |  | 24
33 | Cc1ccc2nc(-c3ccc(NC(=S)NC4CC(C)(C)NC(C)(C)C4)cc3)sc2c1 |  | 12.1
34 | C=C1Nc2cc(-c3ccc(Cl)cc3)nn2C(NCCN(C)C)=C1C |  | 8.39
35 | CCN1CCc2c(sc(NC(=O)c3ccc(OC)cc3OC)c2C(N)=O)C1 |  | 32.7
36 | CCCN(CCC)CCCNC(=S)Nc1ccc2nc(N3CCN(CC)CC3)cc(C)c2c1 |  | 22.8
37 | Cc1cc(C)c2sc(N(CCCN(C)C)C(=O)CN3C(=O)c4ccccc4C3=O)nc2c1 |  | 22.2
38 | COc1ccc(C2NCCc3c2[nH]c2ccccc32)cc1COc1ccc(F)cc1 (stereo not drawn) |  | 18.7
